Entries after “also recorded” stand apart in the source; their conditions may differ.
Assay: aqueous solubility characteristics / BCS classification
Assay type: physicochemical
Text: Upon emptying from the stomach, COMPOUND A has the tendency to quickly precipitate out of solution due to an abrupt solubility drop in intestinal pH. […] The present invention relates to orally bioavailable pharmaceutical solid dispersion formulations of COMPOUND A.
Therapeutic compounds with such solubility characteristics typically present pharmaceutical formulation scientists with a challenge while attempting to prepare oral formulations capable of improving oral bioavailability of the therapeutic compound. Such challenges in preparing solid oral dosage forms of COMPOUND A are overcome, according to the present invention, by formulating the compound as a solid dispersion.

COC(=O)N[C@@H](C)CNc1nccc(-c2cn(C(C)C)nc2-c2cc(Cl)cc(NS(C)(=O)=O)c2F)n1 [COMPOUND A, (S)-methyl (1-((4-(3-(5-chloro-2-fluoro-3-(methylsulfonamido)phenyl)-1-isopropyl-1H-pyrazol-4-yl)pyrimidin-2-yl)amino)propan-2-yl)carbamate]
BCS class: BCS class II | solubility at low pH (low pH): higher solubility; also recorded: highly soluble | aqueous solubility at weakly acidic and neutral pH (weakly acidic and neutral pH): limited solubility; also recorded: poor aqueous solubility

Source: patent US9763941B2, “Method of treating melanoma by administration of pharmaceutical formulations of (S)-methyl (1-((4-(3-(5-chloro-2-fluoro-3-(methylsulfonamido)phenyl)-1-isopropyl-1H-pyrazol-4-yl)pyrimidin-2-yl)amino)propan-2-yl)carbamate” (Array BioPharma, Inc., priority 2011, dated 2017)
